Measured values: PMC7955114, “Discovery of fungal surface NADases predominantly present in pathogenic species” (Nature Communications, 2021)

Columns and labels:
AfNADase [1] = target: T1, AfNADase (Aspergillus fumigatus, UniProt Q4WL81); assay: X-ray structure, crystals soaked with NAD+; type: binding; conditions: active site of molecule A, EGTA-treated protein, Ca2+ absent, formed from 10 mM NAD+ soak
T1 construct: gene nadA; N-glycosylated at N45, N95, N118; about 30 kDa; homodimer; thumb 20-117, TNT palm domain 117-234; mutants also in 293 cells (C-terminal His6)

AfNADase [2] = target: T1, AfNADase; assay: X-ray co-crystal structure; type: binding; conditions: non-hydrolysable substrate analogue, active site of molecule B; 5 mM BAD co-crystallized, 0.1 M sodium acetate pH 5, CaCl2
NcNADase = target: T2, NcNADase (Neurospora crassa, UniProt Q7S936); assay: HPLC cleavage assay; type: biochemical; conditions: 200 µM substrate, 50 mM Tris-HCl pH 8.0, 0.5 mM CaCl2, 150 mM NaCl, 20 °C (conditions described for AfNADase)
T2 construct: gene NCU07948; secreted from transiently transfected 293 cells, codon-optimized, in pCMV-Flag5a (Flag tag), anti-FLAG purified, N-glycosylated
T2 sequence (Q7S936 20-243): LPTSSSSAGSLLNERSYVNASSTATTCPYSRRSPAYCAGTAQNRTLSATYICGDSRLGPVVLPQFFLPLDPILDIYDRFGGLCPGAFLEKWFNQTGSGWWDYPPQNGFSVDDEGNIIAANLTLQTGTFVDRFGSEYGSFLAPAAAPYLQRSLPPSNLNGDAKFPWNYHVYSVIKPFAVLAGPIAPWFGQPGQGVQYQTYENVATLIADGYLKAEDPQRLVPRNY

[3] = system: NC(=O)c1ccc[n+]([C@@H]2O[C@H](COP(=O)(O)OP(=O)(O)OC[C@H]3O[C@@H](n4cnc5c(N)ncnc54)[C@H](O)[C@@H]3O)[C@@H](O)[C@H]2O)c1; assay: purified protein; conditions: 500 µM substrate, 0.2 nM enzyme, 25 mM sodium phosphate pH 5.8, 50 mM NaCl, 5 % D2O, 23 °C
[4] = system: NC(=O)c1ccc[n+]([C@@H]2O[C@H](COP(=O)(O)OP(=O)(O)OC[C@H]3O[C@@H](n4cnc5c(N)ncnc54)[C@H](OP(=O)(O)O)[C@@H]3O)[C@@H](O)[C@H]2O)c1; assay: purified protein; conditions: 500 µM substrate, 0.2 nM enzyme, 25 mM sodium phosphate pH 5.8, 50 mM NaCl, 5 % D2O, 23 °C
[5] = target: the molecule itself; assay: SEC; purified recombinant AfNADase; conditions of the analysis not told in the text (Supplementary Fig. 2C-F)

**Q.** With NC(=O)c1cccnc1 [Nam] as the molecule, how does the “X-ray structure, crystals soaked with NAD+” value (AfNADase [1]; bound together with ADP-ribose) read?
**A.** the reaction products, Nam and ADPR, were bound to a putative active site

**Q.** How did the X-ray co-crystal structure (AfNADase [2]) turn out when NC(=O)c1cccc([C@@H]2O[C@H](COP(=O)(O)OP(=O)(O)OC[C@H]3O[C@@H](n4cnc5c(N)ncnc54)[C@H](O)[C@@H]3O)[C@@H](O)[C@H]2O)c1 [BAD] was run?
**A.** We were able to co-crystallize AfNADase with BAD bound to the active site

**Q.** Which HPLC cleavage assay (NcNADase) does the source give for NC(=O)c1ccc[n+]([C@@H]2O[C@H](COP(=O)(O)OP(=O)(O)OC[C@H]3O[C@@H](n4cnc5c(N)ncnc54)[C@H](O)[C@@H]3O)[C@@H](O)[C@H]2O)c1 [NAD^+] here?
**A.** Both AfNADase and NcNADase cleaved NAD^+ and NADP^+

**Q.** Which results are given for AfNADase (Aspergillus fumigatus Af293)?
**A.** Km [3]: 119.7 ± 40.8 µM; Km [4]: 106 ± 27.1 µM

**Q.** How did the HPLC cleavage assay (NcNADase) turn out when NC(=O)c1ccc[n+]([C@@H]2O[C@H](COP(=O)(O)OP(=O)(O)OC[C@H]3O[C@@H](n4cnc5c(N)ncnc54)[C@H](OP(=O)(O)O)[C@@H]3O)[C@@H](O)[C@H]2O)c1 [NADP^+] was run?
**A.** Both AfNADase and NcNADase cleaved NAD^+ and NADP^+

**Q.** For Nc1ncnc2c1ncn2[C@@H]1O[C@H](COP(=O)(O)OP(=O)(O)OC[C@H]2OC(O)[C@H](O)[C@@H]2O)[C@@H](O)[C@H]1O (some centres unmarked) [ADPR], which “X-ray structure, crystals soaked with NAD+” value (AfNADase [1]; bound together with nicotinamide) is on record?
**A.** the reaction products, Nam and ADPR, were bound to a putative active site

B1: Aspergillus fumigatus NADase (AfNADase), recombinant, from Sf9 insect cells (enzyme)
chain: LQHTEDSLFPARCWPDPCAGITFQNDTYVCGDPRLGPVVLPQKFPLNNELRTYARFGALCPAEFLDKWATDVAPNGTYIYPPANGFALDTEEQPILGNATLPVGMKLDRFGSEYGTFLAPLGAPYIERSLPPSNLNTFDGMYPYNYHVYQVTKEFVVGLGPIAPWFEQPGMGTQFVTYTNVLGLIDDGYLRRLDESEYDEKVEYSNPYTPGPNQ
modifications: N-linked glycosylation at N45, N95 and N118; disulfide bridges C33-80 and C38-50
notes: also called A. fumigatus NADase; gene product AFUA_6G14470
**Q.** B1 was tested. Which “stoichiometry N” value [5] did it give?
**A.** 2
